According to the supplement of paper PMC6045584:
± gives the standard deviation of the averaged measurements.

Key:
[1] = compound: Cc1nc(Nc2ncc(C(=O)Nc3c(C)cccc3Cl)s2)cc(N2CCN(CCO)CC2)n1 [DASATINIB]; experiment: surviving fraction relative to DMSO-only wells; higher = less growth inhibition; settings: exposure time: 5 days
Summary of the method: (§1)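 Lines were retained only if, across three screens, replicate Pearson r was >0.7 and median Z' was >0.3. Viability was measured as CellTiter-Glo luminescence and reported as surviving fraction relative to the median of DMSO-only wells. Readings followed 10 minutes at room temperature, after log-phase tumour cells seeded at 250–500 per well in 384-well plates had been exposed, from 24 hours after seeding, continuously for five days to inhibitors at 0.5, 1, 5, 10, 50, 100, 500 and 1000 nM.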

[2] = compound: CCn1c(C(=O)N(C2CC2)C2CC2)cc2c3c(ncn3C)c(Nc3cc(C)n(C)n3)nc21; experiment: as above; settings: exposure time: 5 days
Summary of the method: as §1

Row | Test System | surviving fraction ([1]; 0.5 nM) | surviving fraction ([1]; 1 nM) | surviving fraction ([1]; 5 nM) | surviving fraction ([1]; 10 nM) | surviving fraction ([1]; 50 nM) | surviving fraction ([1]; 100 nM) | surviving fraction ([1]; 500 nM) | surviving fraction ([1]; 1000 nM) | surviving fraction ([2]; 0.5 nM) | surviving fraction ([2]; 1 nM) | surviving fraction ([2]; 5 nM) | surviving fraction ([2]; 10 nM) | surviving fraction ([2]; 50 nM) | surviving fraction ([2]; 100 nM) | surviving fraction ([2]; 500 nM) | surviving fraction ([2]; 1000 nM)
1 | MDAMB361 BREAST | 0.678 ± 0.12 | 0.733 ± 0.081 | 0.668 ± 0.087 | 0.711 ± 0.16 | 0.799 ± 0.058 | 0.781 ± 0.039 | 0.75 ± 0.077 | 0.821 ± 0.13 | 0.838 ± 0.094 | 0.87 ± 0.039 | 0.829 ± 0.083 | 0.812 ± 0.049 | 0.867 ± 0.055 | 0.8863 ± 0.0064 | 0.93 ± 0.083 | 0.842 ± 0.038
2 | ASKA SYNOVIAL | 0.928 ± 0.024 | 0.904 ± 0.051 | 0.974 ± 0.061 | 0.936 ± 0.046 | 0.985 ± 0.085 | 0.94 ± 0.032 | 0.919 ± 0.019 | 0.905 ± 0.036 | 1.06 ± 0.071 | 0.998 ± 0.1 | 1.06 ± 0.064 | 1.05 ± 0.062 | 1.15 ± 0.092 | 1.11 ± 0.063 | 1.07 ± 0.057 | 0.953 ± 0.051
3 | SG28 HEADNECK | 0.749 ± 0.055 | 0.772 ± 0.04 | 0.687 ± 0.028 | 0.534 ± 0.087 | 0.439 ± 0.033 | 0.329 ± 0.018 | 0.213 ± 0.016 | 0.204 ± 0.032 | 1.06 ± 0.11 | 1.05 ± 0.038 | 1.02 ± 0.025 | 1.02 ± 0.046 | 1.13 ± 0.043 | 0.954 ± 0.096 | 0.951 ± 0.081 | 0.95 ± 0.093
4 | SCC003 HEADNECK | 0.877 ± 0.036 | 0.843 ± 0.068 | 0.899 ± 0.13 | 0.813 ± 0.076 | 0.827 ± 0.025 | 0.654 ± 0.046 | 0.263 ± 0.014 | 0.149 ± 0.023 | 0.92 ± 0.15 | 0.937 ± 0.047 | 1.02 ± 0.095 | 0.968 ± 0.015 | 1.11 ± 0.099 | 1.12 ± 0.12 | 0.917 ± 0.12 | 0.928 ± 0.045
5 | SIHA CERVIX | 0.876 ± 0.016 | 0.806 ± 0.013 | 0.74 ± 0.026 | 0.742 ± 0.019 | 0.772 ± 0.046 | 0.648 ± 0.052 | 0.561 ± 0.0062 | 0.543 ± 0.027 | 0.868 ± 0.064 | 0.906 ± 0.052 | 0.991 ± 0.036 | 0.965 ± 0.041 | 1.04 ± 0.068 | 1.08 ± 0.057 | 0.983 ± 0.11 | 0.91 ± 0.078
6 | SYO1 SYNOVIAL | 0.777 ± 0.024 | 0.758 ± 0.041 | 0.651 ± 0.03 | 0.566 ± 0.07 | 0.415 ± 0.02 | 0.383 ± 0.026 | 0.351 ± 0.011 | 0.34 ± 0.017 | 0.939 ± 0.069 | 0.927 ± 0.055 | 0.951 ± 0.027 | 0.917 ± 0.09 | 1.01 ± 0.051 | 0.97 ± 0.011 | 0.977 ± 0.045 | 0.98 ± 0.017
7 | RDES SOFT TISSUE | 0.849 ± 0.23 | 0.762 ± 0.2 | 0.775 ± 0.067 | 0.767 ± 0.14 | 0.981 ± 0.09 | 0.934 ± 0.057 | 0.975 ± 0.059 | 0.9887 ± 0.0031 | 1.24 ± 0.11 | 1.2 ± 0.16 | 1.33 ± 0.071 | 1.27 ± 0.024 | 1.26 ± 0.12 | 1.19 ± 0.13 | 1.22 ± 0.13 | 1.39 ± 0.12
8 | SG43 HEADNECK | 0.98 ± 0.19 | 1.02 ± 0.16 | 0.592 ± 0.2 | 0.581 ± 0.2 | 0.337 ± 0.078 | 0.273 ± 0.13 | 0.206 ± 0.023 | 0.177 ± 0.054 | 1.02 ± 0.22 | 1.02 ± 0.15 | 0.746 ± 0.015 | 0.935 ± 0.19 | 1.08 ± 0.27 | 0.767 ± 0.2 | 0.962 ± 0.31 | 0.784 ± 0.22
9 | MCF7 BREAST | 0.803 ± 0.048 | 0.798 ± 0.043 | 0.816 ± 0.035 | 0.795 ± 0.019 | 0.787 ± 0.051 | 0.741 ± 0.048 | 0.741 ± 0.028 | 0.739 ± 0.037 | 0.815 ± 0.049 | 0.841 ± 0.028 | 0.844 ± 0.025 | 0.828 ± 0.03 | 0.913 ± 0.048 | 0.862 ± 0.026 | 0.889 ± 0.065 | 0.854 ± 0.039
10 | HELA CERVIX | 0.937 ± 0.085 | 0.934 ± 0.057 | 0.948 ± 0.037 | 0.909 ± 0.029 | 1.02 ± 0.029 | 1.04 ± 0.011 | 1.04 ± 0.061 | 1.06 ± 0.037 | 1 ± 0.096 | 0.998 ± 0.036 | 0.939 ± 0.059 | 0.953 ± 0.044 | 1.09 ± 0.033 | 1.04 ± 0.026 | 1.05 ± 0.037 | 1.1 ± 0.09
11 | VP229 BREAST | 0.813 ± 0.044 | 0.855 ± 0.081 | 0.708 ± 0.031 | 0.619 ± 0.027 | 0.467 ± 0.032 | 0.484 ± 0.0085 | 0.45 ± 0.031 | 0.484 ± 0.018 | 0.983 ± 0.11 | 1.04 ± 0.14 | 1.02 ± 0.21 | 1.06 ± 0.14 | 1.15 ± 0.13 | 1.09 ± 0.12 | 1.23 ± 0.1 | 1.14 ± 0.034
12 | 143B BONE | 1.04 ± 0.058 | 1.03 ± 0.025 | 1.01 ± 0.046 | 0.9835 ± 0.00071 | 0.8695 ± 0.005 | 0.806 ± 0.019 | 0.7575 ± 0.0035 | 0.75 ± 0.042 | 1 ± 0.0057 | 1 ± 0.03 | 1.02 ± 0.012 | 0.9945 ± 0.005 | 1.04 ± 0.025 | 1.02 ± 0.02 | 1.01 ± 0.026 | 1.023 ± 0.0099
13 | 22RV1 PROSTATE | 1.15 ± 0.32 | 0.983 ± 0.09 | 1.1 ± 0.3 | 0.935 ± 0.097 | 1.01 ± 0.15 | 0.929 ± 0.056 | 1.04 ± 0.085 | 1.09 ± 0.16 | 0.972 ± 0.044 | 1.03 ± 0.037 | 0.975 ± 0.019 | 1.02 ± 0.017 | 1.07 ± 0.031 | 1.03 ± 0.079 | 1.07 ± 0.018 | 1.08 ± 0.064
14 | SAOS2 BONE | 0.842 ± 0.055 | 0.788 ± 0.024 | 0.62 ± 0.017 | 0.511 ± 0.043 | 0.475 ± 0.047 | 0.384 ± 0.023 | 0.274 ± 0.032 | 0.256 ± 0.015 | 1 ± 0.061 | 0.97 ± 0.011 | 1.06 ± 0.12 | 0.96 ± 0.031 | 1.12 ± 0.02 | 1.05 ± 0.069 | 1.05 ± 0.072 | 1.04 ± 0.091
15 | CAL51 BREAST | 0.838 ± 0.069 | 0.8707 ± 0.0049 | 0.832 ± 0.047 | 0.737 ± 0.046 | 0.491 ± 0.036 | 0.386 ± 0.025 | 0.248 ± 0.019 | 0.238 ± 0.033 | 0.972 ± 0.049 | 0.985 ± 0.034 | 0.98 ± 0.036 | 0.976 ± 0.043 | 1.02 ± 0.043 | 1.06 ± 0.031 | 1.02 ± 0.034 | 0.99 ± 0.015
16 | C33A CERVIX | 0.869 ± 0.078 | 0.772 ± 0.044 | 0.521 ± 0.034 | 0.419 ± 0.008 | 0.219 ± 0.026 | 0.182 ± 0.0036 | 0.157 ± 0.0025 | 0.172 ± 0.0091 | 0.809 ± 0.035 | 0.801 ± 0.11 | 0.926 ± 0.082 | 1.03 ± 0.19 | 0.895 ± 0.049 | 1.08 ± 0.15 | 0.768 ± 0.025 | 0.657 ± 0.1
17 | HSSYII SYNOVIAL | 0.781 ± 0.031 | 0.791 ± 0.034 | 0.765 ± 0.029 | 0.743 ± 0.022 | 0.634 ± 0.0095 | 0.531 ± 0.047 | 0.489 ± 0.056 | 0.501 ± 0.037 | 0.918 ± 0.058 | 0.908 ± 0.022 | 0.905 ± 0.061 | 0.901 ± 0.022 | 0.937 ± 0.025 | 0.926 ± 0.027 | 0.926 ± 0.049 | 0.887 ± 0.039
18 | HUO3N1 BONE | 0.8227 ± 0.0049 | 0.747 ± 0.029 | 0.568 ± 0.083 | 0.457 ± 0.032 | 0.331 ± 0.0068 | 0.2553 ± 0.0021 | 0.232 ± 0.013 | 0.215 ± 0.0027 | 0.9853 ± 0.0075 | 0.999 ± 0.029 | 1.05 ± 0.057 | 1.03 ± 0.048 | 1.07 ± 0.021 | 1 ± 0.048 | 0.967 ± 0.038 | 0.868 ± 0.013
19 | ZR751 BREAST | 0.934 ± 0.066 | 0.965 ± 0.23 | 0.851 ± 0.098 | 0.835 ± 0.045 | 0.877 ± 0.12 | 0.852 ± 0.18 | 1 ± 0.14 | 0.922 ± 0.17 | 0.982 ± 0.19 | 0.864 ± 0.032 | 0.877 ± 0.11 | 0.99 ± 0.057 | 0.894 ± 0.095 | 0.8 ± 0.031 | 0.812 ± 0.027 | 0.772 ± 0.12
20 | BT549 BREAST | 0.968 ± 0.16 | 0.937 ± 0.12 | 0.774 ± 0.12 | 0.669 ± 0.056 | 0.395 ± 0.037 | 0.236 ± 0.018 | 0.113 ± 0.012 | 0.114 ± 0.037 | 1.14 ± 0.22 | 1 ± 0.046 | 1.06 ± 0.11 | 1.18 ± 0.12 | 0.934 ± 0.19 | 0.965 ± 0.2 | 1.04 ± 0.1 | 0.887 ± 0.13
21 | JIMT1 BREAST | 0.859 ± 0.034 | 0.844 ± 0.033 | 0.802 ± 0.034 | 0.68 ± 0.024 | 0.394 ± 0.041 | 0.182 ± 0.018 | 0.0683 ± 0.012 | 0.0518 ± 0.0019 | 0.975 ± 0.024 | 0.969 ± 0.034 | 0.973 ± 0.026 | 1.01 ± 0.013 | 1.07 ± 0.046 | 1.06 ± 0.02 | 1.06 ± 0.014 | 1.06 ± 0.0097
